The values below come from US6407058B1, “Modifying the permeability of physiological barriers” (Eisai Co., Limited, priority 1996, dated 2002).

In assay [1] the test system is p100/p120. The assay is described as follows: p100/p120 electrophoretic mobility, LLC-PK1 cells. As to conditions: 200 nM PDB, 30 minutes. The format is cell-based, porcine. How it is done: (§1) p100 and p120 electrophoretic mobility is affected by PDB in a number of different epithelial cell lines. LLC-PK1, (a porcine kidney cell line), MDCK strain II cells and gut-derived Caco-2 cells were treated with or without 200 nM PDB for 30 minutes, lysed into Laemmli sample buffer, separated by electrophoresis and analysed by immunoblotting.
(§2) MDCK strain I and II cells were provided by Barry Gumbiner (memorial Sloan-Kettering Cancer Center, NY). LLC-PK1 and Caco-2 cells were obtained from the European Collection of Animal Cell Cultures. All cells were maintained at 37° C. under 5% CO2 in humidified air. MDCK strain I and II cells were maintained in MEM containing 10% FCS, 100 U/ml penicillin, 100 μg/ml streptomycin and 2 mM L-glutamine. Caco-2 cells were maintained in MEM containing 15% FCS, 1% non-essential amino acids and 1 μg/ml bovine insulin (Sigma I-6634). LLC-PK1 cells were grown in M199 (Gibco), 10% FCS, 100 U/ml penicillin, 100 μg/ml streptomycin and 2 mM L-glutamine. For whole cell lysate analysis, 10^5 cells were plated on 6.5 mm diameter, 0.4 μm, polycarbonate Transwell filters from Costar, in 0.25 ml of medium. The basolateral chamber contained 0.75 ml of medium. For immunoprecipitation, 5×10^5 cells were plated onto 24 mm Transwell filters, in 2 ml of medium, with 3 ml of medium in the lower chamber. Cells were used 4-7 days after plating. […]

The subject of assay [2] is p100/p120. The assay is described as follows: p100/p120 electrophoretic mobility, Caco-2 cells. As to conditions: 200 nM PDB, 30 minutes. It is filed as cell-based. How it is done:
as §1, §2

The subject of assay [3] is p100/p120. Description: p100/p120 electrophoretic mobility, human umbilical vein endothelial cells (HUVECs). As to conditions: HUVECs, 200 nM PDB, 30 minutes. The format is cell-based. How it is done:
Cells were treated with or without 200 nM PDB for 30 minutes, lysed into Laemmli sample buffer, separated by electrophoresis and analysed by immunoblotting with antibodies recognising p100 and p120.
Human umbilical vein endothelial cells were incubated with histamine (His), pyrilamine (Pyr) or cimetidine (Cim) alone or in combination. As indicated, cells were preincubated in the absence or presence of cimetidine (10 μM) or pyrilamine (10 μM) for 10 minutes and then treated with or without histamine (10 μM) for a further 10 minutes. The cells were extracted and protein analysed by gel electrophoresis and immunoblotting. […] In the following examples, increase mobility of p100/p120 means decreased phosphorylation.
Whole cell lysates were prepared by rapidly replacing the culture medium in 6.5 mm with hot Laemmli sample buffer, followed by heating at 100° C. for 5 minutes. Immunoprecipitations were carried out at 4° C. Confluent monolayers of cells were washed rapidly with ice cold PBS (containing 0.9 mM CaCl2 and 0.5 mM MgCl2) before addition of 0.5 ml of the appropriate buffer. The filters were then gently scraped, and the lysate was removed and centrifuged at 14000× g. The supernatant was precleared with 10% (w/v) protein A-Sepharose in lysis buffer for 30-60 minutes. Appropriate primary antibodies were added to the lysate, and after 2-3 hours the immunecomplex was isolated, using rabbit anti-mouse secondary antibodies (Jackson Immunoresearch Labs Inc., West Grove, Pa.) and protein A-Sepharose. The beads were washed fives times with lysis buffer, and the bound protein was solubilized in SDS-sample buffer, followed by heating at 100° C. for 5 minutes.
Cell extracts or immunoprecipitates in SDS sample buffer were resolved by SDS-PAGE. The slab gels were then equilibrated in buffer comprising; 48 mM Tris, 39 mM glycine, 20% methanol and 0.03% SDS. Proteins were transferred to nitrocellulose filters (Hybond ECL; Amersham), which were Ponceau S stained and then blocked for 2 hours at 37° C. with 1% BSA in PBS containing 0.05% Tween-20. Filters were then probed with p120 antibody, at a dilution of 1:2500. After washing, filters were incubated with horseradish peroxidase conjugated anti-mouse antibody (Amersham), at a dilution of 1:5000. The filters were then extensively washed in PBS/0.5% Tween-20, and immunoreactive bands were detected by enhanced chemiluminescence (Amersham) following the manufacturers instructions.

Assay [4] has as its system p100/p120. Description: immunofluorescence localisation of p100/p120, MDCK I cells. Conditions: PDB-treated vs control. It is filed as cell-based. From the text:
It has been shown that although some of the p100/p120 in cells is associated with adherens junctions, there is also a large pool that is not complexed with cadherins (at least by immunoprecipitation analysis). […] This procedure served to isolate only that portion of the cellular p100/p120 that associates with the cadherins. Following electrophoresis, and transfer to nitrocellulose, the p100 and p120 present in E-cadherin immunoprecipitates were detected by immunoblotting (Example 9A). […] In both cases, p100/p120 is shown to be present at regions of cell—cell contact.
Cells were fixed at room temperature for 20 minutes in 3% paraformaldehyde made up in PBS containing 0.5 mM CaCl2 and 0.5 mM MgSO4. Fixed cells were washed and then permeabilized by incubation with 0.5% Triton X-100 in PBS for 10 minutes. After washing, the cells were incubated for 30 minutes in PBS containing 10% calf serum and 0.1 M lysine, pH 7.4. Incubation with p120 antibody (0.5 μg/ml) was in PBS containing 10% calf serum for 1 hour. After washing, the cells were then incubated for 60 minutes with a 1:100 dilution of FITC-conjugated anti-mouse IgG (Jackson Immunoresearch Labs), in PBS containing 10% calf serum. After washing, the filters were mounted with Citifluor (Citifluor Products, Canterbury, UK) and examined using a Nikon Microphot-FXA fluorescence microscope fitted with 40× and 60× objectives. […]

In the case of `CCCC(=O)O[C@@H]1[C@@H](C)[C@@]2(O)[C@@H](C=C(CO)C[C@]3(O)C(=O)C(C)=C[C@@H]23)[C@@H]2C(C)(C)[C@]12OC(=O)CCC` [PDB, Phorbol-12,13-dibutyrate], the “migration of p100 and p120” value in assay [1] is listed as “increased markedly”; in assay [2], “less striking, but still present”. In assay [3], the “mobility of p100 and p120” value was “the mobility of p100 and p120 increased”. Further, in assay [4], the “localisation of p100 and p120” value was “no change in the localisation”.
